Experimental data from ChEMBL document CHEMBL1141068, “Synthesis and antibacterial activity of 2,4,6-tri substituted s-triazines” (2005).
Converted amounts (≈) assume the structure as drawn.

Tests used:
[1] = test system: Klebsiella aerogenes; experiment: Minimum inhibitory concentration against Klebsiella aerogenes (Gram-negative) in broth; type: functional
[2] = test system: Bacillus subtilis; experiment: Minimum inhibitory concentration against Bacillus subtilis (Gram-positive) was determined by broth dilution method; type: functional
[3] = test system: Staphylococcus aureus; experiment: Minimum inhibitory concentration against Staphylococcus aureus (Gram-positive) was determined by broth dilution method; type: functional
[4] = test system: Bacillus sp.; experiment: Minimum inhibitory concentration against Bacillus sphaericus (Gram-positive) was determined by broth dilution method; type: functional, Lysinibacillus sphaericus; details: Bacillus sp. (in: firmicutes)
[5] = Minimum inhibitory concentration against Chromobacterium violaceum (Gram-negative) was determined by broth dilution method; type: functional
[6] = test system: Pseudomonas aeruginosa; experiment: Minimum inhibitory concentration against Pseudomonas aeruginosa (Gram-negative) by broth dilution method; type: functional
[7] = test system: Bacillus sp.; experiment: Minimum inhibitory concentration against Bacillus sphaericus (Gram-positive) in broth; type: functional, Lysinibacillus sphaericus; details: Bacillus sp. (in: firmicutes)

Row | MIC [1] | MIC [2] | MIC [3] | MIC [4] | MIC [5] | MIC [7] | SMILES | MIC [6]
1 | 25 µg/mL (≈ 51.4 µM) | 25 µg/mL (≈ 51.4 µM) | 25 µg/mL (≈ 51.4 µM) | 12.5 µg/mL (≈ 25.7 µM) | 25 µg/mL (≈ 51.4 µM) | – | COc1ccc(CNc2nc(NCc3ccc(OC)cc3)nc(NCc3ccc(OC)cc3)n2)cc1 | –
2 | 25 µg/mL (≈ 49.7 µM) | 12.5 µg/mL (≈ 24.9 µM) | 12.5 µg/mL (≈ 24.9 µM) | 12.5 µg/mL (≈ 24.9 µM) | 25 µg/mL (≈ 49.7 µM) | – | Clc1ccc(COc2nc(OCc3ccc(Cl)cc3)nc(OCc3ccc(Cl)cc3)n2)cc1 | –
3 | – | – | – | – | – | 50 µg/mL (≈ 111 µM) | Fc1ccc(CNc2nc(NCc3ccc(F)cc3)nc(NCc3ccc(F)cc3)n2)cc1 | –
4 | – | 25 µg/mL (≈ 62.6 µM) | 25 µg/mL (≈ 62.6 µM) | 25 µg/mL (≈ 62.6 µM) | 25 µg/mL (≈ 62.6 µM) | – | c1ccc(COc2nc(OCc3ccccc3)nc(OCc3ccccc3)n2)cc1 | –
5 | – | – | – | 50 µg/mL (≈ 114 µM) | – | – | Cc1ccc(CNc2nc(NCc3ccc(C)cc3)nc(NCc3ccc(C)cc3)n2)cc1 | –
6 | 25 µg/mL (≈ 55 µM) | 25 µg/mL (≈ 55 µM) | 25 µg/mL (≈ 55 µM) | 25 µg/mL (≈ 55 µM) | 25 µg/mL (≈ 55 µM) | – | Clc1ccc(Cc2nc(Cc3ccc(Cl)cc3)nc(Cc3ccc(Cl)cc3)n2)cc1 | –
7 | 25 µg/mL (≈ 55.1 µM) | 25 µg/mL (≈ 55.1 µM) | 25 µg/mL (≈ 55.1 µM) | 12.5 µg/mL (≈ 27.6 µM) | 12.5 µg/mL (≈ 27.6 µM) | – | Fc1ccc(COc2nc(OCc3ccc(F)cc3)nc(OCc3ccc(F)cc3)n2)cc1 | –
8 | 6.25 µg/mL (≈ 17.8 µM) | 12.5 µg/mL (≈ 35.6 µM) | 12.5 µg/mL (≈ 35.6 µM) | 6.25 µg/mL (≈ 17.8 µM) | 6.25 µg/mL (≈ 17.8 µM) | – | c1ccc(Cc2nc(Cc3ccccc3)nc(Cc3ccccc3)n2)cc1 | –

More lines, now with the values behind:

Row | SMILES | MIC [1] | MIC [2] | MIC [3] | MIC [4] | MIC [5] | MIC [7] | MIC [6]
9 | COc1ccc(COc2nc(OCc3ccc(OC)cc3)nc(OCc3ccc(OC)cc3)n2)cc1 | 25 µg/mL (≈ 51.1 µM) | 25 µg/mL (≈ 51.1 µM) | 25 µg/mL (≈ 51.1 µM) | 25 µg/mL (≈ 51.1 µM) | 6.25 µg/mL (≈ 12.8 µM) | – | –
10 | c1ccc(CNc2nc(NCc3ccccc3)nc(NCc3ccccc3)n2)cc1 | 25 µg/mL (≈ 63.1 µM) | 25 µg/mL (≈ 63.1 µM) | 25 µg/mL (≈ 63.1 µM) | 25 µg/mL (≈ 63.1 µM) | 25 µg/mL (≈ 63.1 µM) | – | –
11 | CN[C@@H]1[C@H](O[C@H]2[C@H](O[C@H]3[C@H](O)[C@@H](O)[C@H](N=C(N)N)[C@@H](O)[C@@H]3N=C(N)N)O[C@@H](C)[C@]2(O)C=O)O[C@@H](CO)[C@H](O)[C@H]1O [STREPTOMYCIN] | 1.56 µg/mL (≈ 2.69 µM) | 6.25 µg/mL (≈ 10.7 µM) | 6.25 µg/mL (≈ 10.7 µM) | 12.5 µg/mL (≈ 21.5 µM) | 3.12 µg/mL (≈ 5.37 µM) | – | 3.12 µg/mL (≈ 5.37 µM)
12 | CC1(C)S[C@@H]2[C@H](NC(=O)Cc3ccccc3)C(=O)N2C1C(=O)O (single isomer, unassigned) [PENICILLIN G] | 6.25 µg/mL (≈ 18.7 µM) | 1.56 µg/mL (≈ 4.67 µM) | 1.56 µg/mL (≈ 4.67 µM) | 3.12 µg/mL (≈ 9.35 µM) | 12.5 µg/mL (≈ 37.4 µM) | – | 12.5 µg/mL (≈ 37.4 µM)
13 | Clc1ccc(CNc2nc(NCc3ccc(Cl)cc3)nc(NCc3ccc(Cl)cc3)n2)cc1 | – | – | – | 25 µg/mL (≈ 50 µM) | 25 µg/mL (≈ 50 µM) | – | –
14 | COc1ccc(Cc2nc(Cc3ccc(OC)cc3)nc(Cc3ccc(OC)cc3)n2)cc1 | 25 µg/mL (≈ 56.6 µM) | 50 µg/mL (≈ 113 µM) | 25 µg/mL (≈ 56.6 µM) | 12.5 µg/mL (≈ 28.3 µM) | 25 µg/mL (≈ 56.6 µM) | – | –
